According to the NIST ThermoML archive (doi:10.1021/je800635g):
Numbers after ± are expanded uncertainties.

Test: xn = mol fraction of the nth substance listed
Details: Liquid, Falling or rolling sphere viscometry

Cc1ccc(C)cc1 [1,4-dimethylbenzene] + CC(=O)O
viscosity [mPa·s]
Details | x1 = 0.1001 | x1 = 0.1997 | x1 = 0.3001 | x1 = 0.3997 | x1 = 0.5 | x1 = 0.6002 | x1 = 0.6988 | x1 = 0.7994 | x1 = 0.8994
313.15 K, 100 kPa | 0.725 ± 0.008 | 0.63 ± 0.007 | 0.571 ± 0.006 | 0.522 ± 0.006 | 0.52 ± 0.005 | 0.514 ± 0.005 | 0.508 ± 0.005 | 0.505 ± 0.005 | 0.499 ± 0.005
313.15 K, 800 kPa | 0.731 ± 0.008 | 0.635 ± 0.007 | 0.576 ± 0.006 | 0.527 ± 0.006 | 0.524 ± 0.006 | 0.519 ± 0.005 | 0.512 ± 0.005 | 0.509 ± 0.005 | 0.503 ± 0.005
313.15 K, 1600 kPa | 0.737 ± 0.008 | 0.641 ± 0.007 | 0.583 ± 0.006 | 0.532 ± 0.006 | 0.53 ± 0.006 | 0.524 ± 0.006 | 0.517 ± 0.005 | 0.514 ± 0.005 | 0.508 ± 0.005
313.15 K, 2400 kPa | 0.743 ± 0.008 | 0.647 ± 0.007 | 0.585 ± 0.006 | 0.537 ± 0.006 | 0.535 ± 0.006 | 0.529 ± 0.006 | 0.522 ± 0.005 | 0.519 ± 0.005 | 0.513 ± 0.005
313.15 K, 3200 kPa | 0.749 ± 0.008 | 0.653 ± 0.007 | 0.591 ± 0.006 | 0.543 ± 0.006 | 0.541 ± 0.006 | 0.534 ± 0.006 | 0.527 ± 0.006 | 0.525 ± 0.005 | 0.518 ± 0.005
333.15 K, 100 kPa | 0.587 ± 0.006 | 0.508 ± 0.005 | 0.459 ± 0.005 | 0.424 ± 0.004 | 0.419 ± 0.004 | 0.418 ± 0.004 | 0.415 ± 0.004 | 0.412 ± 0.004 | 0.407 ± 0.004
333.15 K, 800 kPa | 0.592 ± 0.006 | 0.514 ± 0.005 | 0.464 ± 0.005 | 0.429 ± 0.005 | 0.424 ± 0.004 | 0.423 ± 0.004 | 0.419 ± 0.004 | 0.416 ± 0.004 | 0.411 ± 0.004
333.15 K, 1600 kPa | 0.598 ± 0.006 | 0.52 ± 0.006 | 0.47 ± 0.005 | 0.434 ± 0.005 | 0.429 ± 0.005 | 0.428 ± 0.004 | 0.424 ± 0.004 | 0.422 ± 0.004 | 0.416 ± 0.004
333.15 K, 2400 kPa | 0.605 ± 0.006 | 0.526 ± 0.006 | 0.476 ± 0.005 | 0.44 ± 0.005 | 0.435 ± 0.005 | 0.433 ± 0.005 | 0.429 ± 0.004 | 0.427 ± 0.004 | 0.421 ± 0.004
333.15 K, 3200 kPa | 0.611 ± 0.006 | 0.532 ± 0.006 | 0.482 ± 0.005 | 0.445 ± 0.005 | 0.44 ± 0.005 | 0.438 ± 0.005 | 0.435 ± 0.005 | 0.432 ± 0.005 | 0.427 ± 0.004
353.15 K, 100 kPa | 0.481 ± 0.005 | 0.419 ± 0.004 | 0.378 ± 0.004 | 0.351 ± 0.004 | 0.347 ± 0.004 | 0.342 ± 0.004 | 0.341 ± 0.004 | 0.339 ± 0.004 | 0.339 ± 0.004
353.15 K, 800 kPa | 0.487 ± 0.005 | 0.425 ± 0.005 | 0.384 ± 0.004 | 0.356 ± 0.004 | 0.352 ± 0.004 | 0.347 ± 0.004 | 0.346 ± 0.004 | 0.343 ± 0.004 | 0.344 ± 0.004
353.15 K, 1600 kPa | 0.493 ± 0.005 | 0.431 ± 0.005 | 0.39 ± 0.004 | 0.361 ± 0.004 | 0.357 ± 0.004 | 0.352 ± 0.004 | 0.351 ± 0.004 | 0.349 ± 0.004 | 0.349 ± 0.004
353.15 K, 2400 kPa | 0.499 ± 0.005 | 0.437 ± 0.005 | 0.396 ± 0.004 | 0.367 ± 0.004 | 0.363 ± 0.004 | 0.357 ± 0.004 | 0.356 ± 0.004 | 0.354 ± 0.004 | 0.354 ± 0.004
353.15 K, 3200 kPa | 0.505 ± 0.005 | 0.444 ± 0.005 | 0.402 ± 0.004 | 0.372 ± 0.004 | 0.368 ± 0.004 | 0.363 ± 0.004 | 0.361 ± 0.004 | 0.359 ± 0.004 | 0.359 ± 0.004
373.15 K, 100 kPa | 0.399 ± 0.004 | 0.353 ± 0.004 | 0.314 ± 0.003 | 0.297 ± 0.003 | 0.293 ± 0.003 | 0.289 ± 0.003 | 0.287 ± 0.003 | 0.285 ± 0.003 | 0.288 ± 0.003
373.15 K, 800 kPa | 0.405 ± 0.004 | 0.359 ± 0.004 | 0.319 ± 0.003 | 0.302 ± 0.003 | 0.298 ± 0.003 | 0.293 ± 0.003 | 0.291 ± 0.003 | 0.289 ± 0.003 | 0.293 ± 0.003
373.15 K, 1600 kPa | 0.412 ± 0.004 | 0.365 ± 0.004 | 0.326 ± 0.003 | 0.307 ± 0.003 | 0.303 ± 0.003 | 0.299 ± 0.003 | 0.296 ± 0.003 | 0.294 ± 0.003 | 0.298 ± 0.003
373.15 K, 2400 kPa | 0.418 ± 0.004 | 0.372 ± 0.004 | 0.332 ± 0.004 | 0.313 ± 0.003 | 0.309 ± 0.003 | 0.304 ± 0.003 | 0.302 ± 0.003 | 0.3 ± 0.003 | 0.303 ± 0.003
373.15 K, 3200 kPa | 0.424 ± 0.005 | 0.378 ± 0.004 | 0.338 ± 0.004 | 0.319 ± 0.003 | 0.315 ± 0.003 | 0.309 ± 0.003 | 0.307 ± 0.003 | 0.305 ± 0.003 | 0.308 ± 0.003
393.15 K, 800 kPa | 0.34 ± 0.004 | 0.294 ± 0.003 | 0.269 ± 0.003 | 0.252 ± 0.003 | 0.253 ± 0.003 | 0.249 ± 0.003 | 0.256 ± 0.003 | 0.254 ± 0.003 | 0.254 ± 0.003
393.15 K, 1600 kPa | 0.345 ± 0.004 | 0.3 ± 0.003 | 0.275 ± 0.003 | 0.258 ± 0.003 | 0.258 ± 0.003 | 0.254 ± 0.003 | 0.261 ± 0.003 | 0.258 ± 0.003 | 0.259 ± 0.003
393.15 K, 2400 kPa | 0.352 ± 0.004 | 0.306 ± 0.003 | 0.281 ± 0.003 | 0.263 ± 0.003 | 0.264 ± 0.003 | 0.26 ± 0.003 | 0.266 ± 0.003 | 0.264 ± 0.003 | 0.265 ± 0.003
393.15 K, 3200 kPa | 0.358 ± 0.004 | 0.313 ± 0.003 | 0.287 ± 0.003 | 0.269 ± 0.003 | 0.27 ± 0.003 | 0.265 ± 0.003 | 0.272 ± 0.003 | 0.27 ± 0.003 | 0.27 ± 0.003
413.15 K, 800 kPa | 0.294 ± 0.003 | 0.255 ± 0.003 | 0.237 ± 0.003 | 0.221 ± 0.002 | 0.217 ± 0.002 | 0.218 ± 0.002 | 0.222 ± 0.002 | 0.219 ± 0.002 | 0.22 ± 0.002
413.15 K, 1600 kPa | 0.3 ± 0.003 | 0.26 ± 0.003 | 0.243 ± 0.003 | 0.227 ± 0.002 | 0.217 ± 0.002 | 0.223 ± 0.002 | 0.227 ± 0.002 | 0.225 ± 0.002 | 0.225 ± 0.002
413.15 K, 2400 kPa | 0.307 ± 0.003 | 0.265 ± 0.003 | 0.249 ± 0.003 | 0.233 ± 0.003 | 0.228 ± 0.002 | 0.229 ± 0.002 | 0.232 ± 0.003 | 0.23 ± 0.002 | 0.231 ± 0.002
413.15 K, 3200 kPa | 0.313 ± 0.003 | 0.271 ± 0.003 | 0.255 ± 0.003 | 0.239 ± 0.003 | 0.233 ± 0.003 | 0.234 ± 0.003 | 0.237 ± 0.003 | 0.235 ± 0.003 | 0.236 ± 0.003
433.15 K, 800 kPa | – | 0.223 ± 0.002 | 0.208 ± 0.002 | 0.196 ± 0.002 | 0.195 ± 0.002 | 0.194 ± 0.002 | 0.194 ± 0.002 | 0.191 ± 0.002 | 0.194 ± 0.002
433.15 K, 1600 kPa | 0.26 ± 0.003 | 0.228 ± 0.002 | 0.213 ± 0.002 | 0.202 ± 0.002 | 0.201 ± 0.002 | 0.199 ± 0.002 | 0.199 ± 0.002 | 0.197 ± 0.002 | 0.199 ± 0.002
433.15 K, 2400 kPa | 0.267 ± 0.003 | 0.233 ± 0.003 | 0.219 ± 0.002 | 0.208 ± 0.002 | 0.206 ± 0.002 | 0.205 ± 0.002 | 0.204 ± 0.002 | 0.202 ± 0.002 | 0.204 ± 0.002
433.15 K, 3200 kPa | 0.273 ± 0.003 | 0.239 ± 0.003 | 0.226 ± 0.002 | 0.213 ± 0.002 | 0.212 ± 0.002 | 0.21 ± 0.002 | 0.209 ± 0.002 | 0.208 ± 0.002 | 0.209 ± 0.002
453.15 K, 800 kPa | 0.221 ± 0.002 | 0.196 ± 0.002 | 0.181 ± 0.002 | 0.177 ± 0.002 | 0.174 ± 0.002 | 0.173 ± 0.002 | 0.173 ± 0.002 | 0.17 ± 0.002 | 0.17 ± 0.002
453.15 K, 1600 kPa | 0.227 ± 0.002 | 0.201 ± 0.002 | 0.186 ± 0.002 | 0.183 ± 0.002 | 0.18 ± 0.002 | 0.179 ± 0.002 | 0.178 ± 0.002 | 0.176 ± 0.002 | 0.175 ± 0.002
453.15 K, 2400 kPa | 0.233 ± 0.003 | 0.206 ± 0.002 | 0.192 ± 0.002 | 0.188 ± 0.002 | 0.185 ± 0.002 | 0.184 ± 0.002 | 0.183 ± 0.002 | 0.181 ± 0.002 | 0.18 ± 0.002
453.15 K, 3200 kPa | 0.24 ± 0.003 | 0.211 ± 0.002 | 0.198 ± 0.002 | 0.194 ± 0.002 | 0.191 ± 0.002 | 0.189 ± 0.002 | 0.188 ± 0.002 | 0.187 ± 0.002 | 0.184 ± 0.002
473.15 K, 1600 kPa | 0.19 ± 0.002 | 0.17 ± 0.002 | 0.162 ± 0.002 | 0.162 ± 0.002 | 0.161 ± 0.002 | 0.16 ± 0.002 | 0.16 ± 0.002 | 0.157 ± 0.002 | 0.159 ± 0.002
473.15 K, 2400 kPa | 0.196 ± 0.002 | 0.175 ± 0.002 | 0.168 ± 0.002 | 0.167 ± 0.002 | 0.166 ± 0.002 | 0.165 ± 0.002 | 0.164 ± 0.002 | 0.162 ± 0.002 | 0.164 ± 0.002
473.15 K, 3200 kPa | 0.202 ± 0.002 | 0.181 ± 0.002 | 0.173 ± 0.002 | 0.173 ± 0.002 | 0.171 ± 0.002 | 0.17 ± 0.002 | 0.169 ± 0.002 | 0.168 ± 0.002 | 0.168 ± 0.002
